Assay results from patent US20070128669A1, “Serum-free expansion of cells in culture” (Institute for Chemical Genomics, priority 2005, published 2007).

Tests used:
ESCs = assay: Long term feeder-free culture of ESCs in serum-free (15% KSR) media; type: cell-based, mouse
Protocol: FIG. 7. […] ESCs were cultured in 15% KSR, 4 μg/ml of IQ-1 and 100 ng/ml Wnt3a. ESCs were passaged 2-3 times per week at 1×10^5-1×10^6 cells per 6 cm dish and cells were counted.
FIG. 8. […] AP activity of ESCs cultured for 7 days in IQ-1 containing media supplemented with 15% FCS or 15% KSR. […] (Error bars represent ±S.D.)
FIG. 9. […] Over the 42-day culture period, ESCs cultured in the media in the presence of IQ-1 and Wnt3a maintain expression of the pluripotency markers, (a) Nanog, (b) Oct3/4 and (c) Rex-1. The expression level on day 0 was set as 1.
(§1) Cell culture. ESCs, D3ES (ATCC CRL-1934) were maintained on Mitomycin C treated MEFs in mouse ESC medium containing DMEM (Invitrogen) supplemented with 15% FBS (Invitrogen), 0.1 mM MEM nonessential amino acids (Invitrogen), 0.1 mM 2-mercaptoethanol (Sigma), 2 mM L-glutamine (Invitrogen) and 1,000 U/ml LIF (CHEMICON). To remove MEFs, cells were collected by trypsinization and plated on gelatin-coated culture dishes for 20 min. Non-adherent cells consisting mainly of ESCs were replated on gelatin-coated culture dishes again. Non-adherent cells were used for further experiments. P19 cells were cultured according to conditions recommended by the ATCC. Cells were incubated at 37° C. in a 5% CO2 incubator. Purified Wnt3a was purchased (R&D Systems).

CBP/β-catenin complex = target: T1, CBP/β-catenin complex (Mus musculus, UniProt P45481); assay: Co-immunoprecipitation of β-catenin with CBP in P19 cells; type: cell-based; settings: Wnt3a, 10 μM, 24 hours
T1 construct: endogenous in cells; host or cells: P19 cells (nuclear fraction)
T1 sequence (P45481 2-2441 limits assumed, one chain of several): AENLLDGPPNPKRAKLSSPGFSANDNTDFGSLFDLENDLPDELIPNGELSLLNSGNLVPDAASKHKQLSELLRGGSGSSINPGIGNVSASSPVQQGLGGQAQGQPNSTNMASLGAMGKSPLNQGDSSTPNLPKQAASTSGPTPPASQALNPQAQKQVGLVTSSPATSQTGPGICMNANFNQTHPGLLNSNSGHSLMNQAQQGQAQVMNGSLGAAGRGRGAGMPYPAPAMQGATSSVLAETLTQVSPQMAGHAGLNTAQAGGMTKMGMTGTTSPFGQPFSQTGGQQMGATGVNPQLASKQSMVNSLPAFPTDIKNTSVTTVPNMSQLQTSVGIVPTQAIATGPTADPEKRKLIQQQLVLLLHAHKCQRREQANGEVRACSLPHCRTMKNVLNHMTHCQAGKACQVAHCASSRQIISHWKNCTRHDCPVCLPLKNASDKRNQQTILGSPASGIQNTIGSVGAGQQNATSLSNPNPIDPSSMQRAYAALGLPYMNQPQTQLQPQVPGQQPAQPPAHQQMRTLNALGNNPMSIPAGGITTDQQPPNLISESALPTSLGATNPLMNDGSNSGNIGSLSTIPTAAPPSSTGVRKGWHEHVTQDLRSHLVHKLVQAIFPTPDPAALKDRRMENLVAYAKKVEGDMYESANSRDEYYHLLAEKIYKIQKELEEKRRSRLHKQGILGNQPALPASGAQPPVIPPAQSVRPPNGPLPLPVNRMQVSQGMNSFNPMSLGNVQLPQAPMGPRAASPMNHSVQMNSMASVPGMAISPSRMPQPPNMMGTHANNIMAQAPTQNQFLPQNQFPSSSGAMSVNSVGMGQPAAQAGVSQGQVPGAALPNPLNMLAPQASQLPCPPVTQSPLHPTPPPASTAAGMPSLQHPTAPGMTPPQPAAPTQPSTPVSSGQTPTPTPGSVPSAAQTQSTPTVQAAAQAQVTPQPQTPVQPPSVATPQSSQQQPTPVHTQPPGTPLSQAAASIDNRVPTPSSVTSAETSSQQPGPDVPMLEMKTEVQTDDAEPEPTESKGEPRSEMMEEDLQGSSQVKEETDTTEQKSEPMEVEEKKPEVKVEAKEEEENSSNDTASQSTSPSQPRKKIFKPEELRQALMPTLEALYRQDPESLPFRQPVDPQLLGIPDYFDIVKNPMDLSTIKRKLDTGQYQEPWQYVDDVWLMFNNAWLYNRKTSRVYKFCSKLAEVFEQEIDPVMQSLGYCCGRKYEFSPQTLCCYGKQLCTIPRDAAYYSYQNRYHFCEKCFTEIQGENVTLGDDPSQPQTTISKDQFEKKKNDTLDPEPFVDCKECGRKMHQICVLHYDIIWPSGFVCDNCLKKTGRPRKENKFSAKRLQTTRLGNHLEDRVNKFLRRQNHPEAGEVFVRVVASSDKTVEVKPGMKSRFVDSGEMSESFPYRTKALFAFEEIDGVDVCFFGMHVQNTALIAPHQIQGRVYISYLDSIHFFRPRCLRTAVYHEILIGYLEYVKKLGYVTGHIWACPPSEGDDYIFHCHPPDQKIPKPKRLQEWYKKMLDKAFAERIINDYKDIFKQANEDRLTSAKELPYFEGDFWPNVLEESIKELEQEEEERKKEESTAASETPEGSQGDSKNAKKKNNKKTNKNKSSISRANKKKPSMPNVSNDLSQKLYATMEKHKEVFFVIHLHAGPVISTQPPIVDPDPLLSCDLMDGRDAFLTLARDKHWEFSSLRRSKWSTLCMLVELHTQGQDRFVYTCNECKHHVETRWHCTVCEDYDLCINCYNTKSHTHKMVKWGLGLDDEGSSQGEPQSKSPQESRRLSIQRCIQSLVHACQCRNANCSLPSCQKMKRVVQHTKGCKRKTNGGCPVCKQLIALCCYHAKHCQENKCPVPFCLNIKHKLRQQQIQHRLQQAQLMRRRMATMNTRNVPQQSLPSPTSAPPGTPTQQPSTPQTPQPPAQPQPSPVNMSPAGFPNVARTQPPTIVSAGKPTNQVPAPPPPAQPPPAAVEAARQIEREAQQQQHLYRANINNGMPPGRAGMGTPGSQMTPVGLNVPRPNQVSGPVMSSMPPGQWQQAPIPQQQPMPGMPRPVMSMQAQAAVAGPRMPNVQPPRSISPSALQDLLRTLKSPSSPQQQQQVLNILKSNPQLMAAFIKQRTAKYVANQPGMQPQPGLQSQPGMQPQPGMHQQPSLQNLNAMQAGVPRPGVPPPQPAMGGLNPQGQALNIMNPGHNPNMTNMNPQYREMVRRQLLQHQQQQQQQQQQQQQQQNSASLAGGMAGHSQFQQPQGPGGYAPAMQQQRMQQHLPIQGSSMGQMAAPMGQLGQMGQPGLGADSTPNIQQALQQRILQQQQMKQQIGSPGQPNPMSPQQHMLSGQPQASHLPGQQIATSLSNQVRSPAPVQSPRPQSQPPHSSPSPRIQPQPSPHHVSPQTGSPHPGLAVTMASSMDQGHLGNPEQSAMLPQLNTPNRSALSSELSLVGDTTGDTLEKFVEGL
Protocol: (§2) Co-immunoprecipitation of β-catenin with CBP or p300 in P19 cells. Co-immunoprecipitation was performed as described in (27). Briefly, P19 cells were treated with 10 μM ICG-001 or 10 μM IQ-1 (control DMSO was 0.025%) for 24 hours, after which they were washed and lysed […]. Nuclear fraction was isolated and precleared with antibodies to CBP(A-22) or p300(N-15). β-catenin was detected using a mouse monoclonal antibody (Becton Dickinson) at a dilution of 1:5000.

Murine ESCs (D3 ES) = assay: Alkaline phosphatase activity of ESCs (compound screen); type: cell-based, mouse; settings: media containing 15% FCS, without exogenous LIF
Protocol: as §1
Compound Screens. For the small molecule screen, alkaline phosphatase activity of ESCs was determined. ESCs were plated into 96-well tissue culture plates (Falcon) at a density of 316-1,000 cells per well in ESC medium without LIF. Compounds were added at a final concentration of 4 μg/ml. Cells were treated with compounds for 7 days and test cell populations were washed with PBS and 100 μl of p-nitrophenyl phosphate solution (MOSS Inc.) was added. The absorbance at 405 nm was measured by spectrophotometer (Spectramax, Molecular Devices).

Mouse D3 ESCs = assay: Long term expansion of ESCs without MEF feeders or LIF; type: cell-based
Protocol: FIG. 1. […] FIG. 1A, Structure of IQ-1. FIG. 1B, IQ-1 dose dependently maintains alkaline phosphatase activity. FIG. 1C, IQ-1, dose dependently, maintains SSEA-1 expression. SSEA-1 expression was analyzed 7 days after addition of IQ-1. FIG. 1D, IQ-1 enabled ESCs to proliferate in the undifferentiated state for at least 65 days, without MEF feeders or LIF. ESCs, in media supplemented with 4 μg/ml IQ-1, were passaged 2-3 times every week at 1×10^5-1×10^6 cells per 6 cm dish and counted. All error bars represent mean±SD.
as §1
IQ-1 allowed for long term expansion of ESCs in culture without MEFs and without the addition of exogenous LIF. […]

zebrafish embryos = assay: Zebrafish embryo development (convergent extension); type: in vivo, zebrafish (danio rerio); settings: 1 μM, 1-cell stage embryos, 24 h
Protocol: Zebrafish experiments. Wild-type (AB) zebrafish strain at 1-cell stage were treated with IQ-1 at a final concentration of 1 μM in embryo medium for 24 h. Control zebrafish embryos were incubated at an equivalent concentration of DMSO. At the end of this 24 h treatment, embryos were manually dechorionated and imaged. Zebrafish embryos were maintained at 28° C. Results shown are representative of those obtained from at least 10 embryos for each group, from 2 independent experiments.

P19 cells = assay: Real-time RT-PCR of stem cell maintenance genes in P19 cells; type: cell-based; settings: Wnt3a and IQ-1 vs Wnt3a+DMSO, from the control gene β-actin
Protocol: Real-time RT-PCR. Total RNA was isolated and reverse-transcribed using SuperScript III (Invitrogen). Real-time RT-PCR (Sybr Green; BioRad) was performed using with the gene-specific primers: […]
In certain experiments, 2 μg of extracted total RNA was reverse-transcribed using SuperScript III RT-PCR system (Invitrogen) according to the manufacturer's protocol. 1 μl of cDNA was amplified by PCR with one or more of the gene-specific primers of SEQ ID NOs:5-18 using optimized PCR cycles to obtain amplified reactions in the linear range.
In Table 1, above, the effects of IQ-1 treatment on genes associates with stem cell maintenance are shown, as measured by RT-PCR. The values are represented as ΔΔCT from the control gene β-actin.

p300/β-catenin complex = assay: Co-immunoprecipitation of β-catenin with p300 in P19 cells; type: cell-based; settings: Wnt3a, 10 μM, 24 hours
Protocol: as §2

relative amount of β-catenin associated with CBP (CBP/β-catenin complex): dramatic increase
Alkaline Phosphatase (AP) activity (Murine ESCs (D3 ES)): dose dependently increased AP activity
Compound: CC(=O)c1ccc(NN=C(C(N)=O)C2=NC(C)(C)Cc3ccccc32)cc1 [IQ-1]
proliferation and expression of Oct4, Nanog and Rex1, combination of Wnt3a and IQ-1 (ESCs; 15% KSR, Wnt3a 100 ng/ml plus IQ-1 4 μg/ml): allowed for proliferation and maintenance of pluripotency
time ESC proliferation and pluripotency maintained in culture (ESCs; IQ-1 in conjunction with purified Wnt3a, absence of serum): at least 48 days
maintenance of undifferentiated status of ESCs, agent alone (ESCs; KSR media, single agent): Neither Wnt3a nor IQ-1 alone was sufficient
time ESCs proliferate in the undifferentiated state (Mouse D3 ESCs; 4 μg/ml IQ-1, without MEF feeders or LIF): at least 65 days
ESC proliferation rate (Mouse D3 ESCs; 15% FCS plus 4 μg/ml IQ-1, 65 days, without MEFs or LIF): ~2 log increase every ten days
zebrafish embryo development (zebrafish embryos): significant developmental defects
ΔΔCT MDR-1 (P19 cells): 1.69
ΔΔCT Oct4 (P19 cells): 0.39
ΔΔCT Sox-2 (P19 cells): 4.31
ΔΔCT c-myc (P19 cells): −2.01
p300/β-catenin interaction (p300/β-catenin complex): at the expense of the p300/β-catenin complex
